# Experimental data reported in US9169241B2, “Quinolinyloxyphenylsulfonamides” (Max-Planck-Gesellschaft Zur Forderung der Wissenschaften …, priority 2009, dated 2015).
# Read-outs that look alike come from different tables or passages of the source.
# Tests used:
# Hs578T [1] = test: Cell vitality assay (ATP assay, CellTiter-Glo); format: cell-based; settings: Homo sapiens, Hs-578T, 72 h
# In short: (§1)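 ATP-based luminescence (CellTiter-Glo) after 72 h exposure of 1000 cells/well to seven compound concentrations from 0.195 to 12.5 μM. IC50 defined as concentration reducing ATP to 50% of DMSO control.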
# SF126 [2] = test: Cell vitality assay (ATP assay, CellTiter-Glo); format: cell-based; settings: Homo sapiens, SF-126; SF126, 72 h; Table IIa; read-out: IC50 ATP-Assay after 72 h SF126
# In short: as §1
# U118 [3] = test: Cell vitality assay (ATP assay, CellTiter-Glo); format: cell-based; settings: U118, 72 h; Table IIa; read-out: IC50 ATP-Assay after 72 h U118
# In short: as §1
# Hs578T [4] = test: Wound healing migration assay; format: cell-based; settings: Homo sapiens, Hs-578T; HS578T cell line; Table Ib
# In short: (§2)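 Compound exposure at 12.5, 6.25 and 3.125 μM, with DMSO control, on scratch-wounded monolayers (150000 cells/24 well, overnight). Wound closure imaged by microscopy, fixed with crystal violet after 48 h or 72 h depending on cell line; IC50 is the concentration giving 50% wound size between t0 and t48/t72.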
# indicated cell line = test: Wound healing migration assay (Table IV); format: cell-based; settings: compounds at 12.5, 6.25, 3.125 μM, 48 h-72 h
# In short: as §2
# A172 = test: Matrigel outgrowth assay/branching assay; format: cell-based; settings: Homo sapiens, A 172, Table Vb, read-out: Total branching inhibition in Matrigel A172
# In short: (§3)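 Cells (5000/well) were seeded onto polymerized 3 mg/ml Matrigel with compound at 3.125, 1.56 or 0.78 μM versus DMSO. Branching was imaged by inverted microscopy (5× objective) at 48, 72 and 96 h. Only concentrations giving total branching inhibition scored positive.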
# Hs578T [5] = test: Matrigel outgrowth assay/branching assay; format: cell-based; settings: Homo sapiens, Hs-578T; HS578T cell line; Table Ib; read-out: Total branching inhibition in Matrigel HS578T
# In short: as §3
# SF126 [6] = test: Matrigel outgrowth assay/branching assay; format: cell-based; settings: Homo sapiens, SF-126, Table Vb, read-out: Total branching inhibition in Matrigel SF126
# In short: as §3
# U118 [7] = test: Matrigel outgrowth assay/branching assay; format: cell-based; settings: Table Vb, read-out: Total branching inhibition in Matrigel U118
# In short: as §3
# viable cells in culture = test: Cell viability assay at 10 μM (CellTiter-Glo, Table VII); format: cell-based; settings: compound 10 μM, 72 h;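 note: graded A 0-20%; B 21-40%; C 41-60%; D over 60% viable cells relative to DMSO control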
# In short: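 Cells were seeded at 1000 cells/well in 96-well plates in 100 μl culture medium and incubated for 72 h with 10 μM compound or a DMSO control. ATP content, which reflects metabolically active and therefore viable cells, was then determined by CellTiter-Glo luminescence (Promega) per the manufacturer's instructions and expressed relative to the DMSO control.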
# [8] = HS578T cell line, Table Ib, read-out: IC50 ATP-Assay HS578T after 72 h
# [9] = Hs578T, Table IIa, read-out: IC50 ATP-Assay after 72 h Hs578T
# [10] = Homo sapiens, A 172, A172 cells, read-out: IC50 Wound healing Assay A172
# [11] = Homo sapiens, SF-126, SF126 cells, read-out: IC50 Wound healing Assay SF126
# [12] = Homo sapiens, C8161 cells, read-out: IC50 Wound healing Assay C8161
# [13] = SF763 cells, read-out: IC50 Wound healing Assay SF763
# [14] = U118 cells, read-out: IC50 Wound healing Assay U118
# [15] = Homo sapiens, HCT-116, HCT116 def, read-out: percentage (%) of viable cells HCT 116def
# [16] = Homo sapiens, HCT-116, HCT116 wt, read-out: percentage (%) of viable cells HCT 116wt
# [17] = Homo sapiens, HT-29, HT29, read-out: percentage (%) of viable cells HT29
# [18] = Homo sapiens, NCI-H358, H358, read-out: percentage (%) of viable cells H358
# [19] = Homo sapiens, NCI-H1650, H1650, read-out: percentage (%) of viable cells H1650
# [20] = Homo sapiens, NCI-H1666, H1666, read-out: percentage (%) of viable cells H1666
# [21] = Homo sapiens, NCI-H1975, H1975, read-out: percentage (%) of viable cells H1975
# [22] = Homo sapiens, NCI-H1993, H1993, read-out: percentage (%) of viable cells H1993
# [23] = Homo sapiens, A549, read-out: percentage (%) of viable cells A549
# [24] = Homo sapiens, HCC827, read-out: percentage (%) of viable cells HCC827
# [25] = Homo sapiens, SW480, read-out: percentage (%) of viable cells SW480
# [26] = RKO, read-out: percentage (%) of viable cells RKO
SMILES,IC50 (Hs578T [1]; [8]) [µM],IC50 (SF126 [2]) [µM],IC50 (U118 [3]) [µM],IC50 (Hs578T [4]) [µM],IC50 (indicated cell line; [10]) [µM],IC50 (indicated cell line; [11]) [µM],IC50 (indicated cell line; [12]) [µM],IC50 (indicated cell line; [13]) [µM],IC50 (indicated cell line; [14]) [µM],IC100 (A172) [µM],IC50 (Hs578T [5]) [µM],IC100 (SF126 [6]) [µM],IC100 (U118 [7]) [µM],viability at 10 µM (viable cells in culture; [15]) [%],viability at 10 µM (viable cells in culture; [16]) [%],viability at 10 µM (viable cells in culture; [17]) [%],viability at 10 µM (viable cells in culture; [18]) [%],viability at 10 µM (viable cells in culture; [19]) [%],viability at 10 µM (viable cells in culture; [20]) [%],viability at 10 µM (viable cells in culture; [21]) [%],also measured
"COc1cc2c(Oc3ccc(NS(=O)(=O)c4c(F)cccc4F)cc3F)ccnc2cc1OCCCN1CCOCC1 [Example 77, 2,6-Difluoro-N-{3-fluoro-4-[6-methoxy-7-(3-morpholin-4-yl-propoxy)-quinolin-4-yloxy]-phenyl}-benzenesulfonamide]",≤ 12.5,12.5 to 50,≤ 12.5,≤ 12.5,≤ 12.5,≤ 12.5,≤ 12.5,≤ 12.5,≤ 12.5,> 12.5,≤ 10,≤ 12.5,≤ 12.5,21 to 40,0 to 20,41 to 60,0 to 20,21 to 40,41 to 60,0 to 20,IC50 (Hs578T [1]; [9]): ≤ 12.5 µM; viability at 10 µM (viable cells in culture; [22]): 21 to 40%; viability at 10 µM (viable cells in culture; [23]): 41 to 60%; viability at 10 µM (viable cells in culture; [24]): > 60%; viability at 10 µM (viable cells in culture; [25]): 0 to 20%; viability at 10 µM (viable cells in culture; [26]): 21 to 40%; melting point: 190 to 192 °C
"COc1cc2c(Oc3ccc(NS(=O)(=O)c4ccccc4C(F)(F)F)cc3Cl)ccnc2cc1OCCCN1CCN(C)CC1 [Example 87, N-(3-Chloro-4-{6-methoxy-7-[3-(4-methyl-piperazin-1-yl)-propoxy]-quinolin-4-yloxy}-phenyl)-2-trifluoromethyl-benzenesulfonamide]",12.5 to 50,≤ 12.5,≤ 12.5,≤ 12.5,≤ 12.5,≤ 12.5,12.5 to 50,≤ 12.5,≤ 12.5,≤ 12.5,≤ 10,≤ 12.5,≤ 12.5,0 to 20,41 to 60,0 to 20,0 to 20,21 to 40,41 to 60,0 to 20,IC50 (Hs578T [1]; [9]): 12.5 to 50 µM; viability at 10 µM (viable cells in culture; [22]): 41 to 60%; viability at 10 µM (viable cells in culture; [23]): > 60%; viability at 10 µM (viable cells in culture; [24]): 41 to 60%; viability at 10 µM (viable cells in culture; [25]): 0 to 20%; viability at 10 µM (viable cells in culture; [26]): 41 to 60%; melting point: 103 to 105 °C
"COc1cc2c(Oc3ccc(NS(=O)(=O)c4ccccc4C(F)(F)F)cc3F)ccnc2cc1OCCCN1CCCCC1C (centres unmarked) [Example 99, N-(3-Fluoro-4-{6-methoxy-7-[3-(2-methyl-piperidin-1-yl)-propoxy]-quinolin-4-yloxy}-phenyl)-2-trifluoromethyl-benzenesulfonamide]",≤ 12.5,≤ 12.5,≤ 12.5,≤ 12.5,≤ 12.5,≤ 12.5,12.5 to 50,≤ 12.5,≤ 12.5,> 12.5,≤ 10,≤ 12.5,≤ 12.5,> 60,0 to 20,21 to 40,0 to 20,21 to 40,41 to 60,21 to 40,IC50 (Hs578T [1]; [9]): ≤ 12.5 µM; viability at 10 µM (viable cells in culture; [22]): 21 to 40%; viability at 10 µM (viable cells in culture; [23]): 21 to 40%; viability at 10 µM (viable cells in culture; [24]): 41 to 60%; viability at 10 µM (viable cells in culture; [25]): 0 to 20%; viability at 10 µM (viable cells in culture; [26]): 21 to 40%; melting point: 115 to 116 °C
"COc1cc2c(Oc3ccc(NS(=O)(=O)c4ccccc4C(F)(F)F)cc3F)ccnc2cc1OCCCN(C)C [Example 100, N-{4-[7-(3-Dimethylamino-propoxy)-6-methoxy-quinolin-4-yloxy]-3-fluoro-phenyl}-2-trifluoromethyl-benzenesulfonamide]",≤ 12.5,≤ 12.5,≤ 12.5,≤ 12.5,≤ 12.5,≤ 12.5,12.5 to 50,≤ 12.5,≤ 12.5,> 12.5,≤ 10,≤ 12.5,≤ 12.5,0 to 20,0 to 20,21 to 40,0 to 20,21 to 40,21 to 40,41 to 60,viability at 10 µM (viable cells in culture; [22]): 41 to 60%; viability at 10 µM (viable cells in culture; [23]): > 60%; viability at 10 µM (viable cells in culture; [24]): 21 to 40%; viability at 10 µM (viable cells in culture; [25]): 0 to 20%; viability at 10 µM (viable cells in culture; [26]): 0 to 20%; melting point: 89 to 91 °C
